Data reported in US20210284742A1, “METHODS OF TREATING OR PREVENTING MUCORMYCOSIS” (University of Maryland, Baltimore, priority 2018, published 2021).

How the values were obtained:
[1] = tested on: A549 cells infected with R. delemar; assay: R. delemar-induced A549 cell damage (Pierce LDH assay); type: cell-based, human
Procedure: Measurement of R. delemar-induced host cell damage. R. delemar-induced A549 cell damage was quantified using the Pierce LDH Assay with slight modifications to the manufacturer's protocol. Briefly, A549 cells were grown in 96-well tissue culture plates for 18-24 hours. […] For controls, host cells will be incubated with DMSO (the solvent used to reconstitute the inhibitor) or 25 μg/ml of mouse IgG antibody in parallel. After 24 hours of incubation at 37° C., 50 μl of the cell culture supernatant was collected from uninfected, infected, and fungi-only control wells and transferred to a 96 well plate to assay for LDH activity. Lysis buffer was added to all infected wells and incubated for 45 min at 37° C. After lysis, 50 μl of cell culture supernatant was transferred to a 96 well plate and used for the LDH Assay Kit per protocol. LDH release was calculated as follows: % Cytotoxicity=[Experimental release−Fungal Cells Spontaneous Control−Host Cells Spontaneous Control]/[Host Cell Maximum Control−Fungal Cells Maximum Control−Host Cells Spontaneous Control]×100. LDH is a cytosolic enzyme but will be released into the cell culture medium upon cell membrane damage. The amount of extracellular LDH is proportional to the amount of cell damage.
(§1) R. delemar-induced A549 cell damage was quantified using the Pierce LDH assay, with slight modifications to the manufacturer's protocol. Briefly, A549 cells were grown in 96-well tissue culture plates for 18 to 24 h. Cells were then pretreated for 1 h with inhibitor and infected with 1×10^6-2×10^6 germlings suspended in 150 μl F-12K plus 10% FBS. For controls, host cells were incubated with the appropriate amount of diluent used to reconstitute the in parallel. After 24 h of incubation at 37° C., 50 μl of the cell culture supernatant was collected from uninfected, infected, and fungus-only control wells and transferred to a 96-well plate to assay for LDH activity. Lysis buffer was added to all infected wells, and the mixture was incubated for 45 min at 37° C. After lysis, 50 μl of cell culture supernatant was transferred to a 96-well plate and used for the LDH assay kit per the protocol. LDH release was calculated as follows: % cytotoxicity=[(experimental release−fungal cell spontaneous control−host cell spontaneous control)/(host cell maximum control−fungal cell maximum control−host cell spontaneous control)]×100. LDH is a cytosolic enzyme but will be released into the cell culture medium upon cell membrane damage. The amount of extracellular LDH is proportional to the amount of cell damage.

R. delemar [2] = assay: Growth / germination of R. delemar in the absence of host cells; type: cell-based
R. delemar [3] = assay: Neutropenic mouse model of pulmonary mucormycosis, survival; type: in vivo, mice; conditions: for protection from pulmonary mucormycosis (survival): 10 mg/kg for 5 consecutive days starting 4 h post infection; for protection from pulmonary mucormycosis, delayed administration: treatment delayed for 30 h post infection, administered alone
Procedure: Murine models of Mucormycosis. Male ICR mice (20-25 g from Envigo) were immunosuppresed by cyclophosphamide (200 mg/kg administered intraperotenually [i.p]) and cortisone acetate (500 mg/kg, adminstered subcutaneously) given on days −2, +3, and +9 relative to infection. […] To control for bacterial infection, immunosuppressed mice received 50 mg/L Baytrial (enrofloxacin: Bayer, Leverkusen, Germany) ad libitum on Day −3 thorough Day 0, after which Baytril was replaced with daily ceftazidime (5 mg/mouse) treatment adminstered subcutaneously through day+13 days post infection. Mice were infected with 2.5×10^5 spores of R. delemar 99-880 in 25 μL PBS given intratracheally as previously described (Luo G, Gebremariam T, Lee H, French S W, Wiederhold N P, Patterson T F, Filler S G, Ibrahim A S. 2013. Efficacy of liposomal amphotericin B and posaconazole in intratracheal models of murine mucormycosis. Antimicrobial agents and chemotherapy 57:3340-7). […] Placebo mice received DMA:PEG300. Survival of mice served as the primary endpoint with moribund mice humanely euthanized. To determine effect of treatment on tissue fungal burden mice were immunosuppressed and infected as above. Gefitinib treatment started 4 post infection and continued through Day +3. On Day +4, mice were sacrificed and lungs and brains, representing primary and secondary target organs (Luo G, Gebremariam T, Lee H, French S W, Wiederhold N P, Patterson T F, Filler S G, Ibrahim A S. 2013. Efficacy of liposomal amphotericin B and posaconazole in intratracheal models of murine mucormycosis. Antimicrobial agents and chemotherapy 57:3340-7), were collected and processed for tissue fungal burden by qPCR (Ibrahim A S, Bowman J C, Avanessian V, Brown K, Spellberg B, Edwards J E, Jr., Douglas C M. 2005. Caspofungin inhibits Rhizopus oryzae 1,3-beta-D-glucan synthase, lowers burden in brain measured by quantitative PCR, and improves survival at a low but not a high dose during murine disseminated zygomycosis. Antimicrobial agents and chemotherapy 49:721-7.) Values are expressed as Log10 spore equivalents per gram tissue.
Statistical Analyses. In vitro experiments were performed in triplicate on two or three separate days. Data were expressed as median±interquartile range. Treatment groups were compared to controls using the Wilcoxon rank-sum test and P values <0.05 were considered significant. For the murine studies, survival of mice was analyzed using the Log Rank test, whereas differences in tissue fungal burden were analyzed by the Wilcoxon Rank Sum test using Graph pad Prism 6. P values of <0.05 were considered significant.

[4] = tested on: A549 cells infected with R. oryzae; assay: R. oryzae-induced damage of A549 cells (LDH assay); type: cell-based, human; conditions: 25 μM Mifepristone overnight and/or 25 μM Gefitinib 1 h, 24 h infection (FIG. 14)
Procedure: as §1, with “Cells were then pretreated for 1 h with inhibitor and infected with 1×10^6-2×10^6 germlings suspended in 150 μl F-12K plus 10% FBS.” left out

[5] = tested on: other Mucormycosis-causing fungi; assay: In vitro infection with other mucormycosis-causing fungi (FIG. 23); type: cell-based
[6] = neutropenic mice infected intratracheally, 10 mg/kg i.p. for 5 consecutive days starting 4 h post infection

Structure (SMILES): COc1cc2ncnc(Nc3ccc(F)c(Cl)c3)c2cc1OCCCN1CCOCC1 [Gefitinib]
- R. delemar-induced damage of A549 cells (LDH assay) ([1]; A549 cells pretreated 1 h with 25 μM Gefitinib or 25 μg/ml Cetuximab, 24 h infection, vs vehicle or IgG1 control antibody): significantly reduced
- R. delemar-induced damage of alveolar epithelial cells (LDH assay) ([1]; Example 3, Mifepristone 25 / Gefitinib 25, 24 h infection, vs vehicle (FIG. 12)): significantly decreased
- host cell damage after pre-treatment of R. delemar spore preparations ([1]; spore preparations pre-treated with drug prior to the infection): did not reduce
- R. delemar mycelial growth (R. delemar [2]): no effect
- protection from pulmonary mucormycosis (survival) (R. delemar [3]): protects mice from pulmonary mucormycosis
- protection from pulmonary mucormycosis (survival) (R. delemar [3]; listed as gefitinib): protected
- 18-day survival (R. delemar [3]; delayed treatment beginning 30 h post infection for 6 consecutive days, 10 mg/kg gefitinib, 20 mg/kg posaconazole or both): ~30%
- median survival time (R. delemar [3]; [6]): > 21 days
- mice survived the infection by Day 21 (R. delemar [3]; [6]): 55%
- protection from pulmonary mucormycosis, delayed administration (R. delemar [3]): protects mice from pulmonary mucormycosis
- protection from pulmonary mucormycosis, delayed administration (R. delemar [3]; listed as gefitinib): protected mice from pulmonary mucormycosis
- R. oryzae-induced damage [4]: significantly decreased
- in vitro infection of other Mucormycosis-causing fungi [5]: Inhibits
